Test results: patent US9820983B2, “Immediate release pharmaceutical compositions comprising oxycodone and naloxone” (Purdue Pharma L.P., priority 2009, dated 2017)

Legend:
[1] = Single dose bioavailability study of IR OXN 20/10 vs oxycodone IR capsule 20 mg and OXN PR 20/10 (Targin) in healthy subjects (Example 3); type: in vivo, human; conditions: oral, from the study treatments
Protocol: The study was an open-label, single-dose, 3-treatment, 3-period, randomised crossover. Each subject received single oral doses of IR OXN tablet 20/10 mg, oxycodone IR capsule 20 mg and OXN PR tablet 20/10 mg (Targin®). Subjects received each of the three treatments according to a random allocation schedule (RAS), with at least a 7-day washout period between each dosing.
Subjects attended a screening visit within 21 days of the first dosing day of Study Period 1. Eligible subjects then checked into the study unit on the day before dosing in each study period. Subjects were administered the appropriate study drug in a fasted state the following morning.
Pharmacokinetic blood samples were taken for 36 hours after administration of study drug in each study period, and subjects were discharged after the 36-hour blood sample.
IR OXN tablet 20/10 mg. The treatment was administered orally, in a fasted state, as follows: […]
Log-transformed data for the analytes oxycodone, noroxycodone, oxymorphone, noroxymorphone, naloxone, 6β-naloxol, naloxone-3-glucuronide and 6β-naloxol-3-glucuronide and the pharmacokinetic parameters AUCt, AUCINF and Cmax were analysed using a mixed effect linear model 18, with fixed terms for treatment and period and a random effect for subject.
Treatment ratios/differences and their associated 90% confidence intervals were calculated from the least square means.

[2] = Single dose study of dose proportionality of IR OXN tablets in healthy subjects (Example 2); type: in vivo, human; conditions: after IR OXN tablets, particularly with the lower doses
Description: The study was an open-label, single-dose, 4-treatment, 4-period, randomised crossover study in healthy male and female subjects conducted at a single study centre. […] Subjects received each of the four treatments according to a random allocation schedule (RAS), with at least a 7-day washout period between each dosing.
Subjects attended a screening visit within 21 days of the first dosing day of Study Period 1. Eligible subjects then checked into the study unit on the day before dosing in each study period. Subjects were administered the appropriate study drug in a fasted state the following morning. […]
The following pharmacokinetic parameters were calculated from the plasma concentrations of oxycodone, noroxycodone, oxymorphone, noroxymorphone, naloxone, 6β-naloxol, naloxone-3-glucuronide and 6β-naloxol-3-glucuronide: • Area under the plasma concentration-time curve measured from the time of dosing to the last measurable concentration (AUCt) • Area under the plasma concentration-time curve measured from the time of dosing and extrapolated to infinity (AUCinf) • Maximum observed plasma concentration (Cmax) • Time of maximum observed plasma concentration (tmax) • Terminal phase rate constant (LambdaZ) • Terminal phase half-life (t1/2Z) […]
AUCt values were calculated using the linear trapezoidal method. […]

C=CCN1CC[C@]23c4c5ccc(O)c4O[C@H]2C(=O)CC[C@@]3(O)[C@H]1C5 [Naloxone, naloxone]
bioavailability of naloxone [1]: very low | plasma concentrations of naloxone [2]: extremely low
